Laboratory results from article PMC3701070 (PLoS ONE, 2013).
pIC50: −log10 of the molar value.

Experiments:
Assay in all cases: Cell growth assay
Type in all cases: cell-based
[1] = tested on: SK-LMS-1; details: Homo sapiens, 72 h; SK-LMS-1, RAF WT, RAS WT, 3-day; read-out: gIC50
How it was run: (§1)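 ATP-based CellTiter-Glo detection tracked cell number at 0 and 72 h. The inhibitory potency is expressed as gIC50.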

[2] = tested on: NCI-H82; details: Homo sapiens, 72 h; NCI-H82, RAF WT, RAS WT, 3-day; read-out: gIC50
How it was run: as §1

[3] = tested on: NCI-H526; details: Homo sapiens, 72 h; NCI-H526, RAF WT, RAS WT, 3-day; read-out: gIC50
How it was run: as §1

[4] = tested on: SW684; details: Homo sapiens, 72 h; SW684, RAF WT, RAS WT, 3-day; read-out: gIC50
How it was run: as §1

[5] = tested on: NCI-H226; details: Homo sapiens, 72 h; NCI-H226, RAF WT, RAS WT, 3-day; read-out: gIC50
How it was run: as §1

[6] = tested on: NCI-H209; details: Homo sapiens, 72 h; NCI-H209, RAF WT, RAS WT, 3-day; read-out: gIC50
How it was run: as §1

[7] = tested on: SF-295; details: Homo sapiens, 72 h; SF-295, RAF WT, RAS WT, 3-day; read-out: gIC50
How it was run: as §1

[8] = tested on: Kato III; details: Homo sapiens, 72 h, RAF WT, RAS WT, 3-day, read-out: gIC50
How it was run: as §1

[9] = tested on: T47D; details: Homo sapiens, 72 h, RAF WT, RAS WT, 3-day, read-out: gIC50
How it was run: as §1

[10] = tested on: MiaPaCa; details: Homo sapiens, MIA PaCa-2, 72 h, RAF WT, RAS WT, 3-day, read-out: gIC50
How it was run: as §1

[11] = tested on: SCC-13; details: Homo sapiens, 72 h; SCC-13, RAF WT, RAS WT, 3-day; read-out: gIC50
How it was run: as §1

[12] = tested on: SW-837; details: Homo sapiens, SW837, 72 h; SW-837, RAF WT, KRAS(G12C), 3-day; read-out: gIC50
How it was run: as §1

[13] = tested on: SK-N-AS; details: Homo sapiens, 72 h, RAF WT, NRAS(Q61K), 3-day, read-out: gIC50
How it was run: as §1

[14] = tested on: SNU-398; details: Homo sapiens, 72 h; SNU-398, RAF WT, RAS WT, 3-day; read-out: gIC50
How it was run: as §1

[15] = tested on: SK-MEL-3; details: Homo sapiens, SK-MEL3, 72 h; SK-MEL-3, BRAF(V600E), RAS WT, 3-day; read-out: gIC50
How it was run: as §1

[16] = tested on: A204; details: Homo sapiens, 72 h; A204, RAF WT, RAS WT, 3-day; read-out: gIC50
How it was run: as §1

[17] = tested on: NCI-H1563; details: Homo sapiens, 72 h; NCI-H1563, RAF WT, RAS WT, 3-day; read-out: gIC50
How it was run: as §1

[18] = tested on: SCC-25; details: Homo sapiens, 72 h; SCC-25, RAF WT, RAS WT, 3-day; read-out: gIC50
How it was run: as §1

[19] = tested on: Be(2)C; details: Homo sapiens, 72 h, RAF WT, RAS WT, 3-day, read-out: gIC50
How it was run: as §1

[20] = tested on: SW1463; details: Homo sapiens, 72 h; SW1463, RAF WT, RAS WT, 3-day; read-out: gIC50
How it was run: as §1

[21] = tested on: SW872; details: Homo sapiens, 72 h; SW872, BRAF(V600E), RAS WT, 3-day; read-out: gIC50
How it was run: as §1

[22] = tested on: NCI-H520; details: Homo sapiens, 72 h; NCI-H520, RAF WT, RAS WT, 3-day; read-out: gIC50
How it was run: as §1

[23] = tested on: NCI-H1792; details: Homo sapiens, 72 h; NCI-H1792, RAF WT, RAS WT, 3-day; read-out: gIC50
How it was run: as §1

[24] = tested on: NCI-H2030; details: Homo sapiens, 72 h; NCI-H2030, RAF WT, RAS WT, 3-day; read-out: gIC50
How it was run: as §1

[25] = tested on: SW1088; details: Homo sapiens, 72 h; SW1088, RAF WT, RAS WT, 3-day; read-out: gIC50
How it was run: as §1

[26] = tested on: MES-SA; details: Homo sapiens, 72 h, RAF WT, RAS WT, 3-day, read-out: gIC50
How it was run: as §1

[27] = tested on: NCI-H69; details: Homo sapiens, 72 h; NCI-H69, RAF WT, RAS WT, 3-day; read-out: gIC50
How it was run: as §1

[28] = tested on: MC/CAR; details: Homo sapiens, 72 h, RAF WT, RAS WT, 3-day, read-out: gIC50
How it was run: as §1

[29] = tested on: NCI-H322; details: Homo sapiens, 72 h; NCI-H322, RAF WT, RAS WT, 3-day; read-out: gIC50
How it was run: as §1

[30] = tested on: KYSE-30; details: Homo sapiens, 72 h; KYSE-30, RAF WT, RAS WT, 3-day; read-out: gIC50
How it was run: as §1

[31] = tested on: SNU-1; details: Homo sapiens, SNU1, 72 h; SNU-1, RAF WT, RAS WT, 3-day; read-out: gIC50
How it was run: as §1

[32] = tested on: DLD-1; details: Homo sapiens, 72 h; DLD-1, RAF WT, KRAS(G13D), 3-day; read-out: gIC50
How it was run: as §1

SMILES: CC(C)(C)c1nc(-c2cccc(NS(=O)(=O)c3c(F)cccc3F)c2F)c(-c2ccnc(N)n2)s1 [dabrafenib]
- pIC50 [1]: < 5.00
- pIC50 [2]: < 5.00
- pIC50 [3]: < 5.00
- pIC50 [4]: < 5.00
- pIC50 [5]: < 5.00
- pIC50 [6]: < 5.00
- pIC50 [7]: < 5.00
- pIC50 [8]: < 5.00
- pIC50 [9]: < 5.00
- pIC50 [10]: < 5.00
- pIC50 [11]: < 5.00
- pIC50 [12]: < 5.00
- pIC50 [13]: < 5.00
- pIC50 [14]: < 5.00
- pIC50 [15]: 8.15
- pIC50 [16]: < 5.00
- pIC50 [17]: < 5.00
- pIC50 [18]: < 5.00
- pIC50 [19]: < 5.00
- pIC50 [20]: < 5.00
- pIC50 [21]: 6.42
- pIC50 [22]: < 5.00
- pIC50 [23]: < 5.00
- pIC50 [24]: < 5.00
- pIC50 [25]: < 5.00
- pIC50 [26]: 5.16
- pIC50 [27]: < 5.00
- pIC50 [28]: 6.00
- pIC50 [29]: < 5.00
- pIC50 [30]: < 5.00
- pIC50 [31]: 5.82
- pIC50 [32]: < 5.00
